Drawing on patent US20220389061A1, “IMMUNOMODULATORS” (priority 2019, published 2022), this text covers IC50 for 13 compounds.

Starred links: 1 amine or outer side, 2 acyl side, 3 side chain; linkers in the order of their positions; H or OH if unused. Positions of bridges follow the written chain, without caps; N, C: chain ends. Non-standard residues stand in square brackets, D forms with d. Residues, ends and D or L forms follow the SMILES beside them. Groups on a side chain read outwards from the residue. *: point of attachment. Trp(1-CH2CO2Me) = COC(=O)Cn1cc(C[C@H](N)C(=O)O)c2ccccc21; Trp(1-CH2COOH) = N[C@@H](Cc1cn(CC(=O)O)c2ccccc12)C(=O)O; Acridine9carbonyl = O=C(c1c2ccccc2nc2ccccc12)*; X79 = CCn1c2ccccc2c2cc(NC(=S)*)ccc21; X1 = S=C(Nc1ccc2c(c1)Cc1ccccc1-2)*; Hyp = O=C(O)[C@@H]1C[C@@H](O)CN1; X32 = c1ccc2c(c1)Cc1cc(N*)ccc1-2; X34 = O=C(c1c2ccccc2cc2ccccc12)*; X47 = O=C(c1cn2c(n1)sc1ccccc12)*; NH(3-MeOPh) = COc1cccc(N*)c1; NMeNle = CCCC[C@H](NC)C(=O)O; NMeA = CN[C@@H](C)C(=O)O; Dab = NCC[C@H](N)C(=O)O; X39 = CCCCOc1ccc(N*)cc1; Dap = NC[C@H](N)C(=O)O; CO = O=C([*:1])[*:2]

The target in one assay is T1, PD-1/PD-L1 (Homo sapiens, UniProt Q9NZQ7).
T1 construct: TVMV protease site linker (C); made in house; host or cells: HEK293T cells
T1 sequence (Q9NZQ7 18-239): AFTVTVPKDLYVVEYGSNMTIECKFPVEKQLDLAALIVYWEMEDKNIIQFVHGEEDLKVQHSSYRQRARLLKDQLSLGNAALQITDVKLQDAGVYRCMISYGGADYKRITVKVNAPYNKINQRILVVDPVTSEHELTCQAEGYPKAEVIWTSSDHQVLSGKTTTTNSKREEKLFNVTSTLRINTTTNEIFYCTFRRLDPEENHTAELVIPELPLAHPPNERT
Description: PD-1/PD-L1 Homogenous Time-Resolved Fluorescence (HTRF) binding assay.
Settings: not given
Summed up:
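Compounds preincubated 15 min with PD-L1-His (10 nM final), then PD-1-Ig (20 nM final) added for 15 min in dPBS with 0.1% BSA, 0.05% Tween-20. Detection by Eu-cryptate anti-Ig (1 nM) and APC anti-His (20 nM) HTRF.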
(In TR-FRET formats the signal depends on donor and acceptor labels being close together.)
Broadly, the IC50 is the midpoint of a concentration-inhibition curve. In the case of `CCCC[C@H]1C(=O)N(C)[C@@H](CCCC)C(=O)N[C@@H](CC(C)C)C(=O)N[C@H](C(=O)NCC(N)=O)CSCC(=O)N[C@@H](Cc2ccc(O)cc2)C(=O)N(C)[C@@H](C)C(=O)N[C@@H](CC(N)=O)C(=O)N2CCC[C@H]2C(=O)N[C@@H](CNC(=O)Nc2ccc3c(c2)Cc2ccccc2-3)C(=O)N[C@@H](CC(C)C)C(=O)N2C[C@H](O)C[C@H]2C(=O)N[C@@H](Cc2c[nH]c3ccccc23)C(=O)N[C@@H](CCNC(=O)Nc2ccc3c(c2)Cc2ccccc2-3)C(=O)N[C@@H](Cc2cn(CC(=O)O)c3ccccc23)C(=O)N1C` [Example 2008] ({CH2CO}-Y[NMeA]NP[Dap]([CO-X32])L[Hyp]W[Dab]([CO-X32])[Trp(1-CH2COOH)][NMeNle][NMeNle]LCG-NH2; thioether N-14), the IC50 is 46.7 nM. `CCCC[C@H]1C(=O)N(C)[C@@H](CCCC)C(=O)N[C@@H](CC(C)C)C(=O)N[C@H](C(=O)NCC(N)=O)CSCC(=O)N[C@@H](Cc2ccc(O)cc2)C(=O)N(C)[C@@H](C)C(=O)N[C@@H](CC(N)=O)C(=O)N2CCC[C@H]2C(=O)N[C@@H](CNC(=O)Nc2ccc3c(c2)Cc2ccccc2-3)C(=O)N[C@@H](CC(C)C)C(=O)N2C[C@H](O)C[C@H]2C(=O)N[C@@H](Cc2c[nH]c3ccccc23)C(=O)N[C@@H](CCN)C(=O)N[C@@H](Cc2cn(CC(=O)O)c3ccccc23)C(=O)N1C` [Example 2009] ({CH2CO}-Y[NMeA]NP[Dap]([CO-X32])L[Hyp]W[Dab][Trp(1-CH2COOH)][NMeNle][NMeNle]LCG-NH2; thioether N-14) had an IC50 of 3.6 nM.

Staying with this assay, now noted: PD-L1-His 10 nM pre-incubated with inhibitor, PD-1-Ig 20 nM; read-out: HTRF IC50.
For the compound `CCCCOc1ccc(NC(=O)NC[C@@H]2NC(=O)[C@@H]3CCCN3C(=O)[C@H](CC(N)=O)NC(=O)[C@H](C)N(C)C(=O)[C@H](Cc3ccc(O)cc3)NC(=O)CSC[C@@H](C(=O)NCC(N)=O)NC(=O)[C@H](CC(C)C)NC(=O)[C@H](CCCC)N(C)C(=O)[C@H](CCCC)N(C)C(=O)[C@H](Cc3cn(CC(=O)O)c4ccccc34)NC(=O)[C@H](CCN)NC(=O)[C@H](Cc3c[nH]c4ccccc34)NC(=O)[C@@H]3C[C@@H](O)CN3C(=O)[C@H](CC(C)C)NC2=O)cc1` [Example 1139] ({CH2CO}-Y[NMeA]NP[Dap]([CO-X39])L[Hyp]W[Dab][Trp(1-CH2COOH)][NMeNle][NMeNle]LCG-NH2; thioether N-14), the half-inhibitory concentration (IC50) worked out at 13 nM. Same read-out and setting: as for `CCCC[C@H]1C(=O)N(C)[C@@H](CCCC)C(=O)N[C@@H](CC(C)C)C(=O)N[C@H](C(=O)NCC(N)=O)CSCC(=O)N[C@@H](Cc2ccc(O)cc2)C(=O)N(C)[C@@H](C)C(=O)N[C@@H](CC(N)=O)C(=O)N2CCC[C@H]2C(=O)N[C@@H](CNC(=O)Nc2cccc(OC)c2)C(=O)N[C@@H](CC(C)C)C(=O)N2C[C@H](O)C[C@H]2C(=O)N[C@@H](Cc2c[nH]c3ccccc23)C(=O)N[C@@H](CCNC(=O)Nc2cccc(OC)c2)C(=O)N[C@@H](Cc2cn(CC(=O)O)c3ccccc23)C(=O)N1C` [Example 1140] ({CH2CO}-Y[NMeA]NP[Dap]([CO-NH(3-MeOPh)])L[Hyp]W[Dab]([CO-NH(3-MeOPh)])[Trp(1-CH2COOH)][NMeNle][NMeNle]LCG-NH2; thioether N-14), the figure is 6 nM; as for `CCCC[C@H]1C(=O)N(C)[C@@H](CCCC)C(=O)N[C@@H](CC(C)C)C(=O)N[C@H](C(=O)NCC(N)=O)CSCC(=O)N[C@@H](Cc2ccc(O)cc2)C(=O)N(C)[C@@H](C)C(=O)N[C@@H](CC(N)=O)C(=O)N2CCC[C@H]2C(=O)N[C@@H](CNC(=O)c2cn3c(n2)sc2ccccc23)C(=O)N[C@@H](CC(C)C)C(=O)N2C[C@H](O)C[C@H]2C(=O)N[C@@H](Cc2c[nH]c3ccccc23)C(=O)N[C@@H](CCNC(=O)c2cn3c(n2)sc2ccccc23)C(=O)N[C@@H](Cc2cn(CC(=O)OC)c3ccccc23)C(=O)N1C` [Example 2001] ({CH2CO}-Y[NMeA]NP[Dap](X47)L[Hyp]W[Dab](X47)[Trp(1-CH2CO2Me)][NMeNle][NMeNle]LCG-NH2; thioether N-14), 184 nM; as for `CCCC[C@H]1C(=O)N(C)[C@@H](CCCC)C(=O)N[C@@H](CC(C)C)C(=O)N[C@H](C(=O)NCC(N)=O)CSCC(=O)N[C@@H](Cc2ccc(O)cc2)C(=O)N(C)[C@@H](C)C(=O)N[C@@H](CC(N)=O)C(=O)N2CCC[C@H]2C(=O)N[C@@H](CNC(=O)c2c3ccccc3nc3ccccc23)C(=O)N[C@@H](CC(C)C)C(=O)N2C[C@H](O)C[C@H]2C(=O)N[C@@H](Cc2c[nH]c3ccccc23)C(=O)N[C@@H](CCNC(=O)c2c3ccccc3nc3ccccc23)C(=O)N[C@@H](Cc2cn(CC(=O)OC)c3ccccc23)C(=O)N1C` [Example 2003] ({CH2CO}-Y[NMeA]NP[Dap](Acridine9carbonyl)L[Hyp]W[Dab](Acridine9carbonyl)[Trp(1-CH2CO2Me)][NMeNle][NMeNle]LCG-NH2; thioether N-14), 22.6 nM. On the same count and under the same terms, in the case of `CCCC[C@H]1C(=O)N(C)[C@@H](CCCC)C(=O)N[C@@H](CC(C)C)C(=O)N[C@H](C(=O)NCC(N)=O)CSCC(=O)N[C@@H](Cc2ccc(O)cc2)C(=O)N(C)[C@@H](C)C(=O)N[C@@H](CC(N)=O)C(=O)N2CCC[C@H]2C(=O)N[C@@H](CNC(=O)c2c3ccccc3cc3ccccc23)C(=O)N[C@@H](CC(C)C)C(=O)N2C[C@H](O)C[C@H]2C(=O)N[C@@H](Cc2c[nH]c3ccccc23)C(=O)N[C@@H](CCNC(=O)c2c3ccccc3cc3ccccc23)C(=O)N[C@@H](Cc2cn(CC(=O)OC)c3ccccc23)C(=O)N1C` [Example 2006] ({CH2CO}-Y[NMeA]NP[Dap](X34)L[Hyp]W[Dab](X34)[Trp(1-CH2CO2Me)][NMeNle][NMeNle]LCG-NH2; thioether N-14) it was 1590 nM. Still for that read-out and setting: as for `CCCC[C@H]1C(=O)N(C)[C@@H](CCCC)C(=O)N[C@@H](CC(C)C)C(=O)N[C@H](C(=O)NCC(N)=O)CSCC(=O)N[C@@H](Cc2ccc(O)cc2)C(=O)N(C)[C@@H](C)C(=O)N[C@@H](CC(N)=O)C(=O)N2CCC[C@H]2C(=O)N[C@@H](CNC(=S)Nc2ccc3c(c2)Cc2ccccc2-3)C(=O)N[C@@H](CC(C)C)C(=O)N2C[C@H](O)C[C@H]2C(=O)N[C@@H](Cc2c[nH]c3ccccc23)C(=O)N[C@@H](CCNC(=S)Nc2ccc3c(c2)Cc2ccccc2-3)C(=O)N[C@@H](Cc2cn(CC(=O)O)c3ccccc23)C(=O)N1C` [Example 2007] ({CH2CO}-Y[NMeA]NP[Dap](X1)L[Hyp]W[Dab](X1)[Trp(1-CH2COOH)][NMeNle][NMeNle]LCG-NH2; thioether N-14), the figure is 13.3 nM. In the case of `CCCC[C@H]1C(=O)N(C)[C@@H](CCCC)C(=O)N[C@@H](CC(C)C)C(=O)N[C@H](C(=O)NCC(N)=O)CSCC(=O)N[C@@H](Cc2ccc(O)cc2)C(=O)N(C)[C@@H](C)C(=O)N[C@@H](CC(N)=O)C(=O)N2CCC[C@H]2C(=O)N[C@@H](CNC(=S)Nc2ccc3c(c2)Cc2ccccc2-3)C(=O)N[C@@H](CC(C)C)C(=O)N2C[C@H](O)C[C@H]2C(=O)N[C@@H](Cc2c[nH]c3ccccc23)C(=O)N[C@@H](CCN)C(=O)N[C@@H](Cc2cn(CC(=O)O)c3ccccc23)C(=O)N1C` [Example 2010] ({CH2CO}-Y[NMeA]NP[Dap](X1)L[Hyp]W[Dab][Trp(1-CH2COOH)][NMeNle][NMeNle]LCG-NH2; thioether N-14), the IC50 is 3.7 nM. Turning to `CCCC[C@H]1C(=O)N(C)[C@@H](CCCC)C(=O)N[C@@H](CC(C)C)C(=O)N[C@H](C(=O)NCC(N)=O)CSCC(=O)N[C@@H](Cc2ccc(O)cc2)C(=O)N(C)[C@@H](C)C(=O)N[C@@H](CC(N)=O)C(=O)N2CCC[C@H]2C(=O)N[C@@H](CNC(=O)c2c3ccccc3cc3ccccc23)C(=O)N[C@@H](CC(C)C)C(=O)N2C[C@H](O)C[C@H]2C(=O)N[C@@H](Cc2c[nH]c3ccccc23)C(=O)N[C@@H](CCNC(=O)c2c3ccccc3cc3ccccc23)C(=O)N[C@@H](Cc2cn(CC(=O)O)c3ccccc23)C(=O)N1C` [Example 2011] ({CH2CO}-Y[NMeA]NP[Dap](X34)L[Hyp]W[Dab](X34)[Trp(1-CH2COOH)][NMeNle][NMeNle]LCG-NH2; thioether N-14), the half-maximal inhibitory concentration (IC50) worked out at 4.7 nM. Turning to `CCCC[C@H]1C(=O)N(C)[C@@H](CCCC)C(=O)N[C@@H](CC(C)C)C(=O)N[C@H](C(=O)NCC(N)=O)CSCC(=O)N[C@@H](Cc2ccc(O)cc2)C(=O)N(C)[C@@H](C)C(=O)N[C@@H](CC(N)=O)C(=O)N2CCC[C@H]2C(=O)N[C@@H](CNC(=S)Nc2ccc3c(c2)Cc2ccccc2-3)C(=O)N[C@@H](CC(C)C)C(=O)N2C[C@H](O)C[C@H]2C(=O)N[C@@H](Cc2c[nH]c3ccccc23)C(=O)N[C@@H](CCNC(=S)Nc2ccc3c(c2)Cc2ccccc2-3)C(=O)N[C@@H](Cc2cn(CC(=O)O)c3ccccc23)C(=O)N1C` [Example 2012] ({CH2CO}-Y[NMeA]NP[Dap](X1)L[Hyp]W[Dab](X1)[Trp(1-CH2COOH)][NMeNle][NMeNle]LCG-NH2; thioether N-14), the IC50 turned out to be 15.2 nM. For `CCCC[C@H]1C(=O)N(C)[C@@H](CCCC)C(=O)N[C@@H](CC(C)C)C(=O)N[C@H](C(=O)NCC(N)=O)CSCC(=O)N[C@@H](Cc2ccc(O)cc2)C(=O)N(C)[C@@H](C)C(=O)N[C@@H](CC(N)=O)C(=O)N2CCC[C@H]2C(=O)N[C@@H](CNC(=S)Nc2ccc3c(c2)c2ccccc2n3CC)C(=O)N[C@@H](CC(C)C)C(=O)N2C[C@H](O)C[C@H]2C(=O)N[C@@H](Cc2c[nH]c3ccccc23)C(=O)N[C@@H](CCNC(=S)Nc2ccc3c(c2)c2ccccc2n3CC)C(=O)N[C@@H](Cc2cn(CC(=O)O)c3ccccc23)C(=O)N1C` [Example 2013] ({CH2CO}-Y[NMeA]NP[Dap](X79)L[Hyp]W[Dab](X79)[Trp(1-CH2COOH)][NMeNle][NMeNle]LCG-NH2; thioether N-14), the IC50 came out at 8.1 nM. Turning to `CCCC[C@H]1C(=O)N(C)[C@@H](CCCC)C(=O)N[C@@H](CC(C)C)C(=O)N[C@H](C(=O)NCC(N)=O)CSCC(=O)N[C@@H](Cc2ccc(O)cc2)C(=O)N(C)[C@@H](C)C(=O)N[C@@H](CC(N)=O)C(=O)N2CCC[C@H]2C(=O)N[C@@H](CNC(=S)Nc2ccc3c(c2)c2ccccc2n3CC)C(=O)N[C@@H](CC(C)C)C(=O)N2C[C@H](O)C[C@H]2C(=O)N[C@@H](Cc2c[nH]c3ccccc23)C(=O)N[C@@H](CCN)C(=O)N[C@@H](Cc2cn(CC(=O)O)c3ccccc23)C(=O)N1C` [Example 2014] ({CH2CO}-Y[NMeA]NP[Dap](X79)L[Hyp]W[Dab][Trp(1-CH2COOH)][NMeNle][NMeNle]LCG-NH2; thioether N-14), the IC50 came to 3.8 nM.
